Results on two compounds are retold here after patent publication US20240390432A1, “ENGINEERED VECTORS AND ORGANISMS CONTAINING THE SAME FOR ISOFLAVONE CONVERSION IN THE GUT” (Board of Regents, The University of Texas System, priority 2021, published 2024).

For data set [1] the following is noted: Equol-producing postmenopausal women, purified supplement; cited from earlier work.
The target in another data set is ERbeta (Homo sapiens, UniProt Q92731). The settings on record: unlike products activating ERalpha, androgen, glucocorticoid, progesterone, mineralocorticoid receptors; cited from earlier work.
A short description of data set [2]: Serum Equol levels of mice given soy hydrogel and probiotic via drinking water. The settings on record: mouse, oral, positive control: Equol supplemented directly in hydrogel, no Nissle strains. The format is in vivo. The method, then: Serum Equol levels of the mice were measured after 1 week of consumption of a low or high soy content supplement (1× or 8× soy loaded hydrogel). […] Two sets of negative controls were provided as reference. […] In addition, a positive control group consumed Equol that was supplement directly in the hydrogel to reveal, as expected, a very high elevation in serum Equol concentration reaching almost 5 μM without the addition of the engineered Nissle P1 and Nissle P2 strains.

Each structure is given as a SMILES string.

Chain of ERbeta (Q92731 whole entry, species assumed): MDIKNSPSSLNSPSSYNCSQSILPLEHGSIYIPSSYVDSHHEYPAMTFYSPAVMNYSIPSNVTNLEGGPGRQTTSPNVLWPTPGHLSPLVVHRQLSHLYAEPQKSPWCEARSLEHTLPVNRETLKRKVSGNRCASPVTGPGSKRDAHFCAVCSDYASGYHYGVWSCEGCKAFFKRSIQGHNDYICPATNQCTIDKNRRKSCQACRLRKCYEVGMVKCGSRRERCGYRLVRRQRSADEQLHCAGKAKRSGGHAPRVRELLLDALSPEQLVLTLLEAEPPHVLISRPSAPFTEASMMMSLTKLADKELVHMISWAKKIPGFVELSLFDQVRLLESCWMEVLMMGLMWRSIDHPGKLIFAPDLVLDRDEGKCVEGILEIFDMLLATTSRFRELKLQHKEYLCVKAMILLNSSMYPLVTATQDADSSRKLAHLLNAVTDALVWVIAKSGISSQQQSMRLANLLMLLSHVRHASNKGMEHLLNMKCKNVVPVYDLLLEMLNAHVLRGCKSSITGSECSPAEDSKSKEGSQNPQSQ

In the case of `O=c1c(-c2ccc(O)cc2)coc2cc(O)ccc12` [Daidzein], the “effect on serum LDL-C and C-reactive protein” value in data set [1] is reported as “not seen”.

Turning to `Oc1ccc([C@H]2COc3cc(O)ccc3C2)cc1` [Equol], the receptor selectivity result on ERbeta is reported as “selective agonist for ERbeta”. The compound further displayed a concentration at 1 week in data set [2] of approximately 5 µM.
